Results as given in patent US5068222A, “Bombesin antagonists with deletion of net-residue at the C-terminus” (Imperial Chemical Industries PLC, priority 1987, dated 1991).
Where a SMILES comes first, the peptide text is derived from it. [ ]: non-standard residue; d: D form. The star is where a group is joined. Cbz = O=C(OCc1ccccc1)*

How the values were obtained:
[1] = tested on: guinea pig pancreatic acini; settings: cited from earlier work
[2] = tested on: bombesin-induced hypothermia; settings: rat; cited from earlier work
[3] = tested on: bombesin-induced stimulation of the secretion of the enzyme amylase; settings: rat, in vivo
Procedure: (c) An in vivo test involving the measurement of the antagonism of the bombesin-induced stimulation of the secretion of the enzyme amylase into the pancreatic duct of the rat by a test compound administered orally, sub-cutaneously or intravenously. Bombesin and the test compound can be administered concomitantly or the test compound can be predosed at any convenient interval, for example 30, 60, 90, 120, 150 or 180 minutes, before bombesin is dosed. Amylase was measured by analysis of the conversion of starch into maltose, on incubation of the starch/amylase mixture at 30° C. for 15 minutes, using a spectrophotometric assay as originally described by P. Bernfield in `Methods in Enzymology` Vol. I, p17 (Editors Colowick and Kaplan, Academic Press, New York, 1955). Bombesin (5 micrograms/kg, intravenously) causes a large, but submaximal, increase of amylase secretion within 30 minutes.

[4] = tested on: mouse Swiss 3T3 fibroblast cells; assay type: cell-based; settings: 3 h
Procedure: (b) An in vitro assay which assesses the ability of a test compound to inhibit the Neuromedin C stimulated mitogenesis of mouse Swiss 3T3 fibroblast cells as determined by the uptake of [^3 H]-thymidine. The test is similar to those described by N. Corps., L. Rees and K. Brown, Biochem. Journal, 1985, 231, 781 and I. Zachary and E. Rozengurt, Proc. Nat. Acad. Sci. U.S.A., 1985, 82, 7616, except that GRP (18-27) (0.2 or 0.4 nM) was used to stimulate growth and the test compounds were dissolved in an assay medium containing 0.1% bovine serum albumin and 0.4% dimethylsulphoxide and […]

[5] = molecular target: T1, bombesin receptor of mouse Swiss 3T3 fibroblast cells (Mus musculus, UniProt P21729); test: Test (a): in vitro binding assay, displacement of [I125]GRP; settings: ambient temperature, 1 hour
T1 construct: the bombesin receptor of mouse Swiss 3T3 fibroblast cells; endogenous in cells; host or cells: mouse Swiss 3T3 fibroblast cells
T1 sequence (P21729 whole entry): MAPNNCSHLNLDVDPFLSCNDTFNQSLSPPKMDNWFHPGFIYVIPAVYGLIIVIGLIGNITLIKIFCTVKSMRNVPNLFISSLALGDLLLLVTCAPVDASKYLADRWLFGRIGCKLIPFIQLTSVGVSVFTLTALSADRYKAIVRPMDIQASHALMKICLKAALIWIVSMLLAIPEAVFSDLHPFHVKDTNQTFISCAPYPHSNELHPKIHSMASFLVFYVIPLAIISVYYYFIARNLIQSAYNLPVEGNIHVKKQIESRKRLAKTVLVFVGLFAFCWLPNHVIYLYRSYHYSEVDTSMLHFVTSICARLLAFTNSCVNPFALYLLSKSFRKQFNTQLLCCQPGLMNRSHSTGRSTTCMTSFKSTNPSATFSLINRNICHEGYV
Procedure: (a) An in vitro binding assay which assesses the ability of a test compound to displace radiolabelled gastrin releasing peptide ([I^125 ]GRP) from the bombesin receptor of mouse Swiss 3T3 fibroblast cells. The test is similar to that described by I. Zachary and E. Rozengurt, Proc. Nat. Acad. Sci. U.S.A., 1985, 82, 7616, except that the cells are incubated at ambient temperature for 1 hour;

Molecule	bombesin-stimulated secretion of amylase [1]	IC50 in test (c) [3]	IC50 [4]	other results
[D-Phe^12 ]bombesin	inhibited			
[D-Phe^12, Leu^14 ]bombesin	inhibited			
[D-Glp^7, D-Ala^11, Ala^14 ]bombesin (7-14)				antagonism of bombesin-induced hypothermia [2]: partial antagonist
COC(=O)[C@H](CC(C)C)NC(=O)[C@H](CCCCNC(=O)OCc1ccccc1)NC(=O)[C@@H](C)NC(=O)[C@@H](NC(=O)[C@H](C)NC(=O)[C@H](Cc1c[nH]c2ccccc12)NC(=O)[C@H](Cc1c[nH]cn1)NC(C)=O)C(C)C [Ac-His-Trp-Ala-Val-D-Ala-Lys(Z)-Leu-OMe] (Ac-HWAV[dA]K(Cbz)L-OMe)		0.1 mg/kg	0.1 nM	
CNC(=O)[C@H](CC(C)C)NC(=O)[C@H](Cc1c[nH]cn1)NC(=O)[C@@H](C)NC(=O)[C@@H](NC(=O)[C@H](C)NC(=O)[C@H](Cc1c[nH]c2ccccc12)NC(=O)[C@H](Cc1c[nH]cn1)NC(C)=O)C(C)C [Ac-His-Trp-Ala-Val-D-Ala-His-Leu-NHMe] (Ac-HWAV[dA]HL-NHMe)		< 2 mg/kg	28 nM	IC50 [5]: 19.5 nM
[Tyr^4, D-Phe^12 ]bombesin	inhibited			
